Here are results for five compounds from patent US20230346961A1, “GLP-1 AND GIP RECEPTOR CO-AGONISTS” (Novo Nordisk A/S, priority 2020, published 2023).

Structures are written as SMILES. Starred links: 1 amine or outer side, 2 acyl side, 3 side chain; linkers in the order of their positions; H or OH if unused. Non-standard residues stand in square brackets, D forms with d. Residues, ends and D or L forms follow the SMILES beside them. Groups on a side chain read outwards from the residue. *: point of attachment. C20 diacid = O=C(O)CCCCCCCCCCCCCCCCCCC(=O)*; γGlu = O=C(O)[C@H](CCC(=O)[*:2])N[*:1]; εLys = N[C@@H](CCCCN[*:1])C(=O)[*:2]; Trx = NC[C@H]1CC[C@H](C(=O)O)CC1; AEEA = NCCOCCOCC(=O)O; Aib = CC(C)(N)C(=O)O

One test addresses human GLP-1 receptor (Homo sapiens, UniProt P43220). Put plainly: cell-based. The conditions noted are these: hGLP-1R.
The target in the next test is T1, mouse GIP receptor (Mus musculus, UniProt Q0P543).
T1 sequence (Q0P543 19-460): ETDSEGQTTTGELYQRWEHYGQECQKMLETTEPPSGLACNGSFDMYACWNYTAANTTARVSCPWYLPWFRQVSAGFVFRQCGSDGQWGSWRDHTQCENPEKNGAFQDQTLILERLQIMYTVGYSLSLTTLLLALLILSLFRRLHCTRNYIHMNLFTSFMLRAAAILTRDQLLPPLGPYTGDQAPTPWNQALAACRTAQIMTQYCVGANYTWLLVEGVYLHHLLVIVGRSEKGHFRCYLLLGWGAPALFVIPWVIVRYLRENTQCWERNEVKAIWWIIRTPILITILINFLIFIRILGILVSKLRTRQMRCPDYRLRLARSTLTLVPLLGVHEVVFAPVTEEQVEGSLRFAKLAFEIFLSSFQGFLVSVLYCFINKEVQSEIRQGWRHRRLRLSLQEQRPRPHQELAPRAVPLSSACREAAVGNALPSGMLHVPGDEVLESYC
The test is described as follows: cell-based.

The next test concerns the target T2, mouse GLP-1 receptor (Mus musculus, UniProt O35659).
T2 sequence (O35659 22-463): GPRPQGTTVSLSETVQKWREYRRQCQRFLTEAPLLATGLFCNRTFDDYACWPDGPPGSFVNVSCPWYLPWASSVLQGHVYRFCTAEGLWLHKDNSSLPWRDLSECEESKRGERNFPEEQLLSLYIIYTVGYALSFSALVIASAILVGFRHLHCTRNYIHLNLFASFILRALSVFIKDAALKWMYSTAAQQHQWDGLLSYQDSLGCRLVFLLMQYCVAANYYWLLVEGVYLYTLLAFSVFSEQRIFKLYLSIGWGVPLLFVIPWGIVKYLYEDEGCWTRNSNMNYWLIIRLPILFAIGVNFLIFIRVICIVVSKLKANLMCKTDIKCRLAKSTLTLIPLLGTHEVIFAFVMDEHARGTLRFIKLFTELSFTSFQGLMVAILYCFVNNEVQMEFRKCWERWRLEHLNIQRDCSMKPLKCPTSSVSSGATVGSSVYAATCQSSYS

human GLP-1 receptor, sequence (P43220 24-463): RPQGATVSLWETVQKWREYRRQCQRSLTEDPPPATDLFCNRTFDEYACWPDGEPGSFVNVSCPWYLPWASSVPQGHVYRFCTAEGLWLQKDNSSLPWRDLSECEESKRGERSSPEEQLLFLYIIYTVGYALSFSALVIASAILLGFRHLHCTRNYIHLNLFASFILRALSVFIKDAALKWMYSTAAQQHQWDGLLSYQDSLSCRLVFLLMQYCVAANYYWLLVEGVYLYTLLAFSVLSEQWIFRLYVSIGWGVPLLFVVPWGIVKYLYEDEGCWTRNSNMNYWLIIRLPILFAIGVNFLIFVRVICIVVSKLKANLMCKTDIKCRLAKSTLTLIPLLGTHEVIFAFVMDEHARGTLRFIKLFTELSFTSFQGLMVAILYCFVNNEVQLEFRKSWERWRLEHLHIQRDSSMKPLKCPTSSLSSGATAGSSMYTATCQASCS
Description for human GLP-1 receptor: (§1) The in vitro functional potency is the measure of target receptor activation in a whole cell assay.
(§2) In vitro functional potency was determined by measuring the response of the target receptor in a reporter gene assay in individual cell lines. […] When the respective receptor is activated, it results in the production of cAMP, which in turn results in expression of the luciferase protein. When assay incubation is completed, luciferase substrate (luciferin) is added resulting in the enzymatic conversion of luciferin to oxyluciferin and producing bioluminescence. The luminescence is measured as the readout for the assay.
(§3) The cells lines used in these assays were BHK cells with BHKTS13 as a parent cell line. The cell lines were derived from a clone containing the CRE luciferase element and were established by further transfection with the respective receptor to obtain the relevant cell line.
(§4) The cells were cultured at 37° C. with 5% CO2 in Cell Culture Medium. They were aliquoted and stored in liquid nitrogen. The cells were kept in continuous culture and were seeded out the day before each assay.
(§5) GLP-1R and GcgR Cell Culture Medium consisted of DMEM medium with 10% FBS, 500 μg/mL G418, and 300 μg/mL hygromycin. GIPR Cell Culture Medium consisted of DMEM medium with 10% FBS, 400 μg/mL G418, and 300 μg/mL hygromycin. Assay Buffer consisted of DMEM w/o phenol red, 10 mM Hepes, 1×Glutamax, 1% ovalbumin, and 0.1% Pluronic F-68 with the addition of HSA at twice the final assay concentration.
(§6) • 1) Cells were plated at 5000 cells/well and incubated overnight in the assay plate. • 2) Cells were washed once in DPBS. • 3) Stocks of the test compounds and reference compounds in concentrations ranging from 100-300 μM were diluted 1:150 in Assay Buffer. Compounds were then diluted 1:10 in column 1 of a 96 deep well dilution plate and then carried across the row creating a 3.5 fold, 12 point dilution curve. • 4) Assay Buffer (50 μl aliquot) with or without HSA was added to each well in the assay plate. • 5) A 50 μl aliquot of compound or blank was transferred from the dilution plate to the assay plate containing the Assay Buffer with or without HSA. • 6) The assay plate was incubated for 3 h in a 5% CO2 incubator at 37° C. 7) The cells were washed once with DPBS. • 8) A 100 μl aliquot of DPBS was added to each well of the assay plate. • 9) A 100 μl aliquot of steadylite plus reagent (light sensitive) was added to each well of the assay plate. • 10) Each assay plate was covered with aluminum foil to protect it from light and shaken at 250 RPM for 30 min at room temperature. • 11) Each assay plate was read in a microtiter plate reader.
(§7) The data from the microtiter plate reader was first regressed in an Excel in order to calculate the x-axis, log scale concentrations based on the individual test compound's stock concentration and the dilutions of the assay. […] The software performs a non-linear regression (log(agonist) vs response). A minimum of two replicates was measured for each sample. The reported values are averages of the replicates.
Description for mouse GIP receptor: as §1, §2, §3, §4, §5, §6, §7
Description for mouse GLP-1 receptor: as §1, §2, §3, §4, §5, §6, §7

`CC[C@H](C)[C@H](NC(=O)[C@H](CO)NC(=O)[C@H](Cc1ccc(O)cc1)NC(=O)[C@H](CC(=O)O)NC(=O)[C@H](CO)NC(=O)[C@@H](NC(=O)[C@H](Cc1ccccc1)NC(=O)[C@@H](NC(=O)CNC(=O)[C@H](CCC(=O)O)NC(=O)C(C)(C)NC(=O)[C@@H](N)Cc1ccc(O)cc1)[C@@H](C)O)[C@@H](C)O)C(=O)N[C@@H](Cc1ccc(O)cc1)C(=O)N[C@@H](CC(C)C)C(=O)N[C@@H](CCC(=O)O)C(=O)N[C@@H](CCCCN)C(=O)N[C@@H](CCCCNC(=O)[C@@H](N)CCCCNC(=O)[C@@H](N)CCCCNC(=O)CC[C@H](NC(=O)[C@H]1CC[C@H](CNC(=O)CCCCCCCCCCCCCCCCCCC(=O)O)CC1)C(=O)O)C(=O)N[C@@H](C)C(=O)N[C@@H](C)C(=O)NC(C)(C)C(=O)N[C@@H](CCC(=O)O)C(=O)N[C@@H](Cc1ccccc1)C(=O)N[C@H](C(=O)N[C@@H](CCC(N)=O)C(=O)N[C@@H](Cc1c[nH]c2ccccc12)C(=O)N[C@@H](CC(C)C)C(=O)N[C@@H](CC(C)C)C(=O)N[C@@H](CCC(=O)O)C(=O)NCC(=O)NCC(=O)N1CCC[C@H]1C(=O)N[C@@H](CO)C(=O)N[C@@H](CO)C(=O)NCC(=O)N[C@@H](C)C(=O)N1CCC[C@H]1C(=O)N1CCC[C@H]1C(=O)N1CCC[C@H]1C(=O)N[C@@H](CO)C(N)=O)C(C)C` [Compound 34] (H-Y[Aib]EGTFTSDYSIYLEKK([εLys-εLys-γGlu-Trx-C20 diacid])AA[Aib]EFVQWLLEGGPSSGAPPPS-NH2; N-terminus assumed): the EC50 is 0.0032 nM on human GLP-1 receptor (CRE Luc 0% HSA EC50, 0% HSA); 0.379 nM on human GLP-1 receptor (CRE Luc 1% HSA EC50, 1% HSA); 0.0195 nM on mouse GIP receptor; 0.0018 nM at mouse GLP-1 receptor.

Take `CC[C@H](C)[C@H](NC(=O)[C@H](CO)NC(=O)[C@H](Cc1ccc(O)cc1)NC(=O)[C@H](CC(=O)O)NC(=O)[C@H](CO)NC(=O)[C@@H](NC(=O)[C@H](Cc1ccccc1)NC(=O)[C@@H](NC(=O)CNC(=O)[C@H](CCC(=O)O)NC(=O)C(C)(C)NC(=O)[C@@H](N)Cc1ccc(O)cc1)[C@@H](C)O)[C@@H](C)O)C(=O)N[C@@H](Cc1ccc(O)cc1)C(=O)N[C@@H](CC(C)C)C(=O)N[C@@H](CC(=O)O)C(=O)N[C@@H](CCCCN)C(=O)N[C@@H](CCC(N)=O)C(=O)N[C@@H](C)C(=O)N[C@@H](C)C(=O)NC(C)(C)C(=O)N[C@@H](CCC(=O)O)C(=O)N[C@@H](Cc1ccccc1)C(=O)N[C@H](C(=O)N[C@@H](CC(N)=O)C(=O)N[C@@H](Cc1c[nH]c2ccccc12)C(=O)N[C@@H](CC(C)C)C(=O)N[C@@H](CC(C)C)C(=O)N[C@@H](C)C(=O)NCC(=O)NCC(=O)N1CCC[C@H]1C(=O)N[C@@H](CO)C(=O)N[C@@H](CO)C(=O)NCC(=O)N[C@@H](C)C(=O)N1CCC[C@H]1C(=O)N1CCC[C@H]1C(=O)N1CCC[C@H]1C(=O)N[C@@H](CO)C(=O)N[C@@H](CCCCNC(=O)[C@@H](N)CCCCNC(=O)[C@@H](N)CCCCNC(=O)CC[C@H](NC(=O)CCCCCCCCCCCCCCCCC(=O)O)C(=O)O)C(N)=O)C(C)C` [Compound 10]: the EC50 on human GLP-1 receptor (CRE Luc 0% HSA EC50, 0% HSA) was 0.0182 nM; at human GLP-1 receptor (CRE Luc 1% HSA EC50, 1% HSA) it was 0.298 nM; at mouse GIP receptor, 0.259 nM; at mouse GLP-1 receptor, 0.0021 nM.

Consider `CC[C@H](C)[C@H](NC(=O)[C@H](CO)NC(=O)[C@H](Cc1ccc(O)cc1)NC(=O)[C@H](CC(=O)O)NC(=O)[C@H](CO)NC(=O)[C@@H](NC(=O)[C@H](Cc1ccccc1)NC(=O)[C@@H](NC(=O)CNC(=O)[C@H](CCC(=O)O)NC(=O)C(C)(C)NC(=O)[C@@H](N)Cc1ccc(O)cc1)[C@@H](C)O)[C@@H](C)O)C(=O)N[C@@H](Cc1ccc(O)cc1)C(=O)N[C@@H](CC(C)C)C(=O)N[C@@H](CCC(=O)O)C(=O)N[C@@H](CCCCN)C(=O)N[C@@H](CCCCNC(=O)COCCOCCNC(=O)COCCOCCNC(=O)CC[C@H](NC(=O)CCCCCCCCCCCCCCCCCCC(=O)O)C(=O)O)C(=O)N[C@@H](C)C(=O)N[C@@H](C)C(=O)NC(C)(C)C(=O)N[C@@H](CCC(=O)O)C(=O)N[C@@H](Cc1ccccc1)C(=O)N[C@H](C(=O)N[C@@H](CC(N)=O)C(=O)N[C@@H](Cc1c[nH]c2ccccc12)C(=O)N[C@@H](CC(C)C)C(=O)N[C@@H](CC(C)C)C(=O)N[C@@H](C)C(=O)NCC(=O)NCC(=O)N1CCC[C@H]1C(=O)N[C@@H](CO)C(=O)N[C@@H](CO)C(=O)NCC(=O)N[C@@H](C)C(=O)N1CCC[C@H]1C(=O)N1CCC[C@H]1C(=O)N1CCC[C@H]1C(=O)N[C@@H](CO)C(N)=O)C(C)C` [Compound 30] (H-Y[Aib]EGTFTSDYSIYLEKK([AEEA-AEEA-γGlu-C20 diacid])AA[Aib]EFVNWLLAGGPSSGAPPPS-NH2; N-terminus assumed), for which the EC50 on human GLP-1 receptor (CRE Luc 0% HSA EC50, 0% HSA) was 0.0084 nM; on human GLP-1 receptor (CRE Luc 1% HSA EC50, 1% HSA) it was 0.353 nM; on mouse GIP receptor, 0.201 nM; on mouse GLP-1 receptor, 0.0019 nM.

As for `CC[C@H](C)[C@H](NC(=O)[C@H](CO)NC(=O)[C@H](Cc1ccc(O)cc1)NC(=O)[C@H](CC(=O)O)NC(=O)[C@H](CO)NC(=O)[C@@H](NC(=O)[C@H](Cc1ccccc1)NC(=O)[C@@H](NC(=O)CNC(=O)[C@H](CCC(=O)O)NC(=O)C(C)(C)NC(=O)[C@@H](N)Cc1ccc(O)cc1)[C@@H](C)O)[C@@H](C)O)C(=O)N[C@@H](Cc1ccc(O)cc1)C(=O)N[C@@H](CC(C)C)C(=O)N[C@@H](CCC(=O)O)C(=O)N[C@@H](CCC(=O)O)C(=O)N[C@@H](CCC(N)=O)C(=O)N[C@@H](C)C(=O)N[C@@H](C)C(=O)NC(C)(C)C(=O)N[C@@H](CCCCNC(=O)COCCOCCNC(=O)COCCOCCNC(=O)CC[C@H](NC(=O)[C@H]1CC[C@H](CNC(=O)CCCCCCCCCCCCCCCCCCC(=O)O)CC1)C(=O)O)C(=O)N[C@@H](Cc1ccccc1)C(=O)N[C@H](C(=O)N[C@@H](CC(N)=O)C(=O)N[C@@H](Cc1c[nH]c2ccccc12)C(=O)N[C@@H](CC(C)C)C(=O)N[C@@H](CC(C)C)C(=O)N[C@@H](C)C(=O)NCC(=O)NCC(=O)N1CCC[C@H]1C(=O)N[C@@H](CO)C(=O)N[C@@H](CO)C(=O)NCC(=O)N[C@@H](C)C(=O)N1CCC[C@H]1C(=O)N1CCC[C@H]1C(=O)N1CCC[C@H]1C(=O)N[C@@H](CO)C(N)=O)C(C)C` [Compound 25] (H-Y[Aib]EGTFTSDYSIYLEEQAA[Aib]K([AEEA-AEEA-γGlu-Trx-C20 diacid])FVNWLLAGGPSSGAPPPS-NH2; N-terminus assumed), the EC50 at human GLP-1 receptor (CRE Luc 0% HSA EC50, 0% HSA) was determined as 0.0048 nM; at human GLP-1 receptor (CRE Luc 1% HSA EC50, 1% HSA), 0.602 nM; on mouse GIP receptor it was 0.34 nM; at mouse GLP-1 receptor, 0.0029 nM.

Consider `CC[C@H](C)[C@H](NC(=O)[C@H](CO)NC(=O)[C@H](Cc1ccc(O)cc1)NC(=O)[C@H](CC(=O)O)NC(=O)[C@H](CO)NC(=O)[C@@H](NC(=O)[C@H](Cc1ccccc1)NC(=O)[C@@H](NC(=O)CNC(=O)[C@H](CCC(=O)O)NC(=O)C(C)(C)NC(=O)[C@@H](N)Cc1ccc(O)cc1)[C@@H](C)O)[C@@H](C)O)C(=O)N[C@@H](Cc1ccc(O)cc1)C(=O)N[C@@H](CC(C)C)C(=O)N[C@@H](CCC(=O)O)C(=O)N[C@@H](CCC(=O)O)C(=O)N[C@@H](CCC(N)=O)C(=O)N[C@@H](C)C(=O)N[C@@H](C)C(=O)NC(C)(C)C(=O)N[C@@H](CCCCNC(=O)COCCOCCNC(=O)COCCOCCNC(=O)CC[C@H](NC(=O)CCCCCCCCCCCCCCCCCCC(=O)O)C(=O)O)C(=O)N[C@@H](Cc1ccccc1)C(=O)N[C@H](C(=O)N[C@@H](CC(N)=O)C(=O)N[C@@H](Cc1c[nH]c2ccccc12)C(=O)N[C@@H](CC(C)C)C(=O)N[C@@H](CC(C)C)C(=O)N[C@@H](C)C(=O)NCC(=O)NCC(=O)N1CCC[C@H]1C(=O)N[C@@H](CO)C(=O)N[C@@H](CO)C(=O)NCC(=O)N[C@@H](C)C(=O)N1CCC[C@H]1C(=O)N1CCC[C@H]1C(=O)N1CCC[C@H]1C(=O)N[C@@H](CO)C(N)=O)C(C)C` [Compound 26] (H-Y[Aib]EGTFTSDYSIYLEEQAA[Aib]K([AEEA-AEEA-γGlu-C20 diacid])FVNWLLAGGPSSGAPPPS-NH2; N-terminus assumed), for which the EC50 amounted to 0.0047 nM at human GLP-1 receptor (CRE Luc 0% HSA EC50, 0% HSA); 0.37 nM on human GLP-1 receptor (CRE Luc 1% HSA EC50, 1% HSA); 0.776 nM on mouse GIP receptor; 0.0028 nM on mouse GLP-1 receptor.
